Reference: patent publication US20230085307A1, “PYRIDAZINONE COMPOUND AND HERBICIDE” (NISSAN CHEMICAL CORPORATION, priority 2019, published 2023)

Columns and labels:
[1] = test system: green foxtail; experiment: Test Example 4: herbicidal effect by soil treatment (Table 19, symbol G); assay type: in vivo, green foxtail (Setaria viridis); details: amount of applied herbicide 320 g/ha
Procedure, shortened: (§1)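 Step 1: sow seeds in sterilized diluvial soil, cover ~1.5 cm. Step 2: spray diluted emulsion onto soil surface at predetermined rate. Step 3: greenhouse, 25–30° C, three weeks. Step 4: grade effect on each plant by earlier criteria.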

[2] = test system: Chinese sprangletop; experiment: Test Example 3: herbicidal effect by foliage application, Wagner pot (Table 18, symbol D); assay type: in vivo, chinese sprangletop (Leptochloa chinensis)
Procedure, shortened: (§2)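 Plants were sown in alluvial soil held under 0.1–0.5 cm standing water and grown 14 days in a greenhouse at 25–30 °C. An emulsifiable formulation, water-diluted to the set dose, was then sprayed onto the foliage, and effects were scored three weeks later using previously defined criteria.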

[3] = test system: oval-leafed pondweed; experiment: Test Example 1: herbicidal activity, application before weed generation under submerged conditions (Table 16, symbol C); assay type: in vivo, oval-leafed pondweed (Monochoria vaginalis)
Procedure, shortened: (§3)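 Submerged Wagner pots (alluvial soil, 4 cm water) sown with weed seeds and planted with 2.5-leaf rice seedlings; emulsifiable concentrate diluted in water applied to water surface on sowing day. Held in greenhouse at 25-30 °C; injury scored 0-5 by herbicidal rate after three weeks.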

[4] = test system: redroot pigweed; experiment: Test Example 4: herbicidal effect by soil treatment (Table 19, symbol N); assay type: in vivo, redroot pigweed (Amaranthus retroflexus); details: amount of applied herbicide 320 g/ha
Procedure, shortened: as §1

[5] = test system: velvetleaf; experiment: Test Example 4: herbicidal effect by soil treatment (Table 19, symbol M); assay type: in vivo, velvetleaf (Abutilon theophrasti); details: amount of applied herbicide 320 g/ha
Procedure, shortened: as §1

[6] = test system: Japanese bulrush; experiment: Test Example 1: herbicidal activity, application before weed generation under submerged conditions (Table 16, symbol B); assay type: in vivo, Japanese bulrush (Schoenoplectus juncoides)
Procedure, shortened: as §3

[7] = test system: southern crabgrass; experiment: Test Example 4: herbicidal effect by soil treatment (Table 19, symbol F); assay type: in vivo, southern crabgrass (Digitaria ciliaris); details: amount of applied herbicide 320 g/ha
Procedure, shortened: as §1

[8] = test system: blackgrass; experiment: Test Example 4: herbicidal effect by soil treatment (Table 19, symbol J); assay type: in vivo, blackgrass (Alopecurus myosuroides); details: amount of applied herbicide 320 g/ha
Procedure, shortened: as §1

[9] = test system: barnyard grass; experiment: Test Example 4: herbicidal effect by soil treatment (Table 19, symbol H); assay type: in vivo, barnyard grass (Echinochloa crus-galli); details: amount of applied herbicide 320 g/ha
Procedure, shortened: as §1

[10] = test system: chickweed; experiment: Test Example 4: herbicidal effect by soil treatment (Table 19, symbol P); assay type: in vivo, common chickweed (Stellaria media); details: amount of applied herbicide 320 g/ha
Procedure, shortened: as §1

[11] = test system: late watergrass; experiment: Test Example 2: herbicidal activity, application during weed generation under submerged conditions (Table 17, symbol A); assay type: in vivo, late watergrass (Echinochloa oryzicola); details: AAH 320 g/ha; application during weed generation, submerged conditions
Procedure, shortened: (§4)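 Alluvial soil in Wagner pots was flooded to 4 cm depth and sown with the three weeds together; pots were kept in a greenhouse at 25° C. to 30° C. At the one to two leaf stage, an emulsion formulation diluted in water to a set rate went onto the water surface; scored three weeks later.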

[12] = test system: oval-leafed pondweed; experiment: Test Example 2: herbicidal activity, application during weed generation under submerged conditions (Table 17, symbol C); assay type: in vivo, oval-leafed pondweed (Monochoria vaginalis); details: AAH 320 g/ha; application during weed generation, submerged conditions
Procedure, shortened: as §4

[13] = test system: late watergrass; experiment: Test Example 1: herbicidal activity, application before weed generation under submerged conditions (Table 16, symbol A); assay type: in vivo, late watergrass (Echinochloa oryzicola)
Procedure, shortened: as §3

[14] = test system: lambsquarters; experiment: Test Example 4: herbicidal effect by soil treatment (Table 19, symbol O); assay type: in vivo, lambsquarters (Chenopodium album); details: amount of applied herbicide 320 g/ha
Procedure, shortened: as §1

[15] = test system: rice flat sedge; experiment: Test Example 3: herbicidal effect by foliage application, Wagner pot (Table 18, symbol E); assay type: in vivo, rice flat sedge (Cyperus iria)
Procedure, shortened: as §2

[16] = test system: Italian ryegrass; experiment: Test Example 4: herbicidal effect by soil treatment (Table 19, symbol K); assay type: in vivo, Italian ryegrass (Lolium multiflorum); details: amount of applied herbicide 320 g/ha
Procedure, shortened: as §1

[17] = test system: persian speedwell; experiment: Test Example 4: herbicidal effect by soil treatment (Table 19, symbol R); assay type: in vivo, Persian speedwell (Veronica persica); details: amount of applied herbicide 320 g/ha
Procedure, shortened: as §1

[18] = test system: windgrass; experiment: Test Example 4: herbicidal effect by soil treatment (Table 19, symbol L); assay type: in vivo, windgrass (Apera spica-venti); details: amount of applied herbicide 320 g/ha
Procedure, shortened: as §1

[19] = test system: wild oat; experiment: Test Example 4: herbicidal effect by soil treatment (Table 19, symbol I); assay type: in vivo, wild oat (Avena fatua); details: amount of applied herbicide 320 g/ha
Procedure, shortened: as §1

[20] = test system: barnyard grass; experiment: Test Example 3: herbicidal effect by foliage application, Wagner pot (Table 18, symbol H); assay type: in vivo, barnyard grass (Echinochloa crus-galli)
Procedure, shortened: as §2

[21] = test system: Japanese bulrush; experiment: Test Example 2: herbicidal activity, application during weed generation under submerged conditions (Table 17, symbol B); assay type: in vivo, Japanese bulrush (Schoenoplectus juncoides); details: AAH 320 g/ha; application during weed generation, submerged conditions
Procedure, shortened: as §4

[22] = test system: windgrass; experiment: Test Example 5: herbicidal effect by foliage application, plastic box (Table 20, symbol L); assay type: in vivo, windgrass (Apera spica-venti); details: amount of applied herbicide 320 g/ha; foliage application after 14-day growth; evaluated three weeks after application
Procedure, shortened: (§5)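 Foliar spray test: emulsion formulation diluted in water to a set application rate, sprayed onto 14-day-old plants raised in diluvial soil at 25° C to 30° C under glass. Both herbicidal effect and crop effect rated visually three weeks later.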

[23] = test system: velvetleaf; experiment: Test Example 5: herbicidal effect by foliage application, plastic box (Table 20, symbol M); assay type: in vivo, velvetleaf (Abutilon theophrasti); details: amount of applied herbicide 320 g/ha; foliage application after 14-day growth; evaluated three weeks after application
Procedure, shortened: as §5

[24] = test system: wild oat; experiment: Test Example 5: herbicidal effect by foliage application, plastic box (Table 20, symbol I); assay type: in vivo, wild oat (Avena fatua); details: amount of applied herbicide 320 g/ha; foliage application after 14-day growth; evaluated three weeks after application
Procedure, shortened: as §5

[25] = test system: barnyard grass; experiment: Test Example 5: herbicidal effect by foliage application, plastic box (Table 20, symbol H); assay type: in vivo, barnyard grass (Echinochloa crus-galli); details: amount of applied herbicide 320 g/ha; foliage application after 14-day growth; evaluated three weeks after application
Procedure, shortened: as §5

[26] = test system: lambsquarters; experiment: Test Example 5: herbicidal effect by foliage application, plastic box (Table 20, symbol O); assay type: in vivo, lambsquarters (Chenopodium album); details: amount of applied herbicide 320 g/ha; foliage application after 14-day growth; evaluated three weeks after application
Procedure, shortened: as §5

[27] = test system: persian speedwell; experiment: Test Example 5: herbicidal effect by foliage application, plastic box (Table 20, symbol R); assay type: in vivo, Persian speedwell (Veronica persica); details: amount of applied herbicide 320 g/ha; foliage application after 14-day growth; evaluated three weeks after application
Procedure, shortened: as §5

[28] = test system: southern crabgrass; experiment: Test Example 5: herbicidal effect by foliage application, plastic box (Table 20, symbol F); assay type: in vivo, southern crabgrass (Digitaria ciliaris); details: amount of applied herbicide 320 g/ha; foliage application after 14-day growth; evaluated three weeks after application
Procedure, shortened: as §5

[29] = test system: blackgrass; experiment: Test Example 5: herbicidal effect by foliage application, plastic box (Table 20, symbol J); assay type: in vivo, blackgrass (Alopecurus myosuroides); details: amount of applied herbicide 320 g/ha; foliage application after 14-day growth; evaluated three weeks after application
Procedure, shortened: as §5

[30] = test system: redroot pigweed; experiment: Test Example 5: herbicidal effect by foliage application, plastic box (Table 20, symbol N); assay type: in vivo, redroot pigweed (Amaranthus retroflexus); details: amount of applied herbicide 320 g/ha; foliage application after 14-day growth; evaluated three weeks after application
Procedure, shortened: as §5

[31] = test system: chickweed; experiment: Test Example 5: herbicidal effect by foliage application, plastic box (Table 20, symbol P); assay type: in vivo, common chickweed (Stellaria media); details: amount of applied herbicide 320 g/ha; foliage application after 14-day growth; evaluated three weeks after application
Procedure, shortened: as §5

[32] = test system: Italian ryegrass; experiment: Test Example 5: herbicidal effect by foliage application, plastic box (Table 20, symbol K); assay type: in vivo, Italian ryegrass (Lolium multiflorum); details: amount of applied herbicide 320 g/ha; foliage application after 14-day growth; evaluated three weeks after application
Procedure, shortened: as §5

[33] = test system: green foxtail; experiment: Test Example 5: herbicidal effect by foliage application, plastic box (Table 20, symbol G); assay type: in vivo, green foxtail (Setaria viridis); details: amount of applied herbicide 320 g/ha; foliage application after 14-day growth; evaluated three weeks after application
Procedure, shortened: as §5

[34] = amount of applied herbicide 320 g/ha

With Cc1nn(C)c(=O)c(-c2c(-c3ccc(Cl)c(F)c3)sc3ccc(F)cc23)c1O [2-350] the “herbicidal effect on G: green foxtail” value [1] was 5 (Herbicidal rate of 90% or more (almost completely withered)), the “herbicidal effect on D: Chinese sprangletop” value [2, 34] was 5 (Herbicidal rate of 90% or more (almost completely withered)) and the “Herbicidal effect on C: oval-leafed pondweed (grade 0-5)” value ([3]; 320 g/ha applied herbicide) was 0 (Herbicidal rate of 5% or less (almost no effect)). For the same compound, the “herbicidal effect on N: redroot pigweed” value [4] was 5 (Herbicidal rate of 90% or more (almost completely withered)), the “herbicidal effect on M: velvetleaf” value [5] was 3 (Herbicidal rate of 40% or more and less than 70%) and the “Herbicidal effect on B: Japanese bulrush (grade 0-5)” value ([6]; 320 g/ha applied herbicide) was 0 (Herbicidal rate of 5% or less (almost no effect)). For the same compound, the “herbicidal effect on F: southern crabgrass” value [7] was 4 (Herbicidal rate of 70% or more and less than 90%), the “herbicidal effect on J: blackgrass” value [8] was 0 (Herbicidal rate of 5% or less (almost no effect)) and the “herbicidal effect on H: barnyard grass” value [9] was 5 (Herbicidal rate of 90% or more (almost completely withered)). For the same compound, the “herbicidal effect on P: chickweed” value [10] was 3 (Herbicidal rate of 40% or more and less than 70%), the “herbicidal effect rating, A: late watergrass” value [11] was 0 (Herbicidal rate of 5% or less (almost no effect)) and the “herbicidal effect rating, C: oval-leafed pondweed” value [12] was 0 (Herbicidal rate of 5% or less (almost no effect)). For the same compound, the “Herbicidal effect on A: late watergrass (grade 0-5)” value ([13]; 320 g/ha applied herbicide) was 3 (Herbicidal rate of 40% or more and less than 70%), the “herbicidal effect on O: lambsquarters” value [14] was 4 (Herbicidal rate of 70% or more and less than 90%) and the “herbicidal effect on E: rice flat sedge” value [15, 34] was 5 (Herbicidal rate of 90% or more (almost completely withered)). For the same compound, the “herbicidal effect on K: Italian ryegrass” value [16] was 4 (Herbicidal rate of 70% or more and less than 90%), the “herbicidal effect on R: persian speedwell” value [17] was 5 (Herbicidal rate of 90% or more (almost completely withered)) and the “herbicidal effect on L: windgrass” value [18] was 4 (Herbicidal rate of 70% or more and less than 90%). For the same compound, the “herbicidal effect on I: wild oat” value [19] was 0 (Herbicidal rate of 5% or less (almost no effect)), the “herbicidal effect on H: barnyard grass” value [20, 34] was 5 (Herbicidal rate of 90% or more (almost completely withered)) and the “herbicidal effect rating, B: Japanese bulrush” value [21] was 2 (Herbicidal rate of 20% or more and less than 40%).
In the case of Cc1nn(C)c(=O)c(-c2c(-c3ccc(OC4CCCCO4)cc3)sc3cc(F)c(F)cc23)c1O (stereo not drawn) [5-024], the “Herbicidal effect by foliage application, L: windgrass” value [22] is reported as 2 (Herbicidal rate of 20% or more and less than 40%), the “herbicidal effect on Chinese sprangletop (D)” value ([2]; 320 g/ha) is reported as 3 (Herbicidal rate of 40% or more and less than 70%) and the “Herbicidal effect by foliage application, M: velvetleaf” value [23] is reported as 3 (Herbicidal rate of 40% or more and less than 70%). The “Herbicidal effect, C: oval-leafed pondweed” value [3, 34] was 5 (Herbicidal rate of 90% or more (almost completely withered)), the “Herbicidal effect by foliage application, I: wild oat” value [24] was 0 (Herbicidal rate of 5% or less (almost no effect)) and the “Herbicidal effect by foliage application, H: barnyard grass” value [25] was 3 (Herbicidal rate of 40% or more and less than 70%). For the same compound, the “Herbicidal effect, B: Japanese bulrush” value [6, 34] was 0 (Herbicidal rate of 5% or less (almost no effect)), the “Herbicidal effect by foliage application, O: lambsquarters” value [26] was 5 (Herbicidal rate of 90% or more (almost completely withered)) and the “Herbicidal effect by foliage application, R: persian speedwell” value [27] was 5 (Herbicidal rate of 90% or more (almost completely withered)). The “herbicidal effect rating, A: late watergrass” value [11] was 0 (Herbicidal rate of 5% or less (almost no effect)), the “Herbicidal effect by foliage application, F: southern crabgrass” value [28] was 4 (Herbicidal rate of 70% or more and less than 90%) and the “herbicidal effect rating, C: oval-leafed pondweed” value [12] was 0 (Herbicidal rate of 5% or less (almost no effect)). For the same compound, the “Herbicidal effect, A: late watergrass” value [13, 34] was 3 (Herbicidal rate of 40% or more and less than 70%), the “Herbicidal effect by foliage application, J: blackgrass” value [29] was 1 (Herbicidal rate of 5% or more and less than 20%) and the “herbicidal effect on rice flat sedge (E)” value ([15]; 320 g/ha) was 0 (Herbicidal rate of 5% or less (almost no effect)). The “Herbicidal effect by foliage application, N: redroot pigweed” value [30] was 5 (Herbicidal rate of 90% or more (almost completely withered)), the “Herbicidal effect by foliage application, P: chickweed” value [31] was 5 (Herbicidal rate of 90% or more (almost completely withered)) and the “Herbicidal effect by foliage application, K: Italian ryegrass” value [32] was 0 (Herbicidal rate of 5% or less (almost no effect)). The “Herbicidal effect by foliage application, G: green foxtail” value [33] was 3 (Herbicidal rate of 40% or more and less than 70%), the “herbicidal effect on barnyard grass (H)” value ([20]; 320 g/ha) was 4 (Herbicidal rate of 70% or more and less than 90%) and the “herbicidal effect rating, B: Japanese bulrush” value [21] was 2 (Herbicidal rate of 20% or more and less than 40%).
